Results reported in ChEMBL document CHEMBL1159291, “Bioactive Constituents from the Flower Buds and Peduncles of Lindera megaphylla” (J Nat Prod, 1995).

What was measured:
[1] = tested on: Aorta; assay: Inhibition of norepinephrine-induced contraction in Wistar rat aorta assessed as contraction at 1 uM preincubated 15 mins before addition of norepinephrine relative to control; type: functional; parameters: scale not given: the % may be the effect or the level left
[2] = tested on: Aorta; assay: Inhibition of KCl-induced contraction in Wistar rat aorta assessed as contraction at 1 uM preincubated 15 mins before addition of KCl relative to control; type: functional; parameters: scale not given: the % may be the effect or the level left
[3] = Induction of rabbit platelet aggregation at 300 uM by turbidimetric method; type: cell-based, Oryctolagus cuniculus
[4] = tested on: Aorta; assay: Inhibition of KCl-induced contraction in Wistar rat aorta assessed as contraction at 120 uM preincubated 15 mins before addition of KCl relative to control; type: functional; parameters: scale not given: the % may be the effect or the level left
[5] = tested on: Aorta; assay: Inhibition of norepinephrine-induced contraction in Wistar rat aorta assessed as contraction at 120 uM preincubated 15 mins before addition of norepinephrine relative to control; type: functional; parameters: scale not given: the % may be the effect or the level left
[6] = tested on: Aorta; assay: Inhibition of norepinephrine-induced contraction in Wistar rat aorta assessed as contraction at 9 uM preincubated 15 mins before addition of norepinephrine relative to control; type: functional; parameters: scale not given: the % may be the effect or the level left
[7] = tested on: Platelet; assay: Inhibition of arachidonic acid-induced rabbit platelet aggregation assessed as aggregation at 300 uM preincubated 3 mins before arachidonic acid challenge by turbidimetric method; type: functional, Oryctolagus cuniculus; parameters: scale not given: the % may be the effect or the level left
[8] = tested on: Aorta; assay: Inhibition of KCl-induced contraction in Wistar rat aorta assessed as contraction at 9 uM preincubated 15 mins before addition of KCl relative to control; type: functional; parameters: scale not given: the % may be the effect or the level left
[9] = tested on: Platelet; assay: Inhibition of collagen-induced rabbit platelet aggregation assessed as aggregation at 300 uM preincubated 3 mins before collagen challenge by turbidimetric method; type: functional, Oryctolagus cuniculus; parameters: scale not given: the % may be the effect or the level left
[10] = tested on: Aorta; assay: Inhibition of KCl-induced contraction in Wistar rat aorta assessed as contraction at 60 uM preincubated 15 mins before addition of KCl relative to control; type: functional; parameters: scale not given: the % may be the effect or the level left
[11] = tested on: Aorta; assay: Inhibition of norepinephrine-induced contraction in Wistar rat aorta assessed as contraction at 60 uM preincubated 15 mins before addition of norepinephrine relative to control; type: functional; parameters: scale not given: the % may be the effect or the level left
[12] = tested on: Platelet; assay: Inhibition of collagen-induced rabbit platelet aggregation assessed as aggregation at 50 uM by turbidimetric method; type: functional, Oryctolagus cuniculus; parameters: scale not given: the % may be the effect or the level left
[13] = tested on: Platelet; assay: Inhibition of arachidonic acid-induced rabbit platelet aggregation assessed as aggregation at 50 uM by turbidimetric method; type: functional, Oryctolagus cuniculus; parameters: scale not given: the % may be the effect or the level left

Row | Activity [3] | SMILES | Activity [4] [%] | Activity [5] [%] | Activity [7] [%] | Activity [9] [%] | other results
1 |  | COC(=O)C1=C(C)NC(C)=C(C(=O)OC)C1c1ccccc1[N+](=O)[O-] [NIFEDIPINE] |  |  |  |  | Activity [1]: 96.5%; Activity [2]: 0%
2 | Not Active | COc1cc2cc3c4c(cc5c(c4c2cc1OC)OCO5)CCN3C [DEHYDRODICENTRINE] | 108 | 95.5 |  |  | 
3 |  | COc1cc2c(cc1OC)-c1c3c(cc4c1[C@H](C2)N(C)CC4)OCO3 [DICENTRINE] |  |  | 0 | 3.1 | Activity [6]: 22.5%; Activity [8]: 77.5%
4 | Not Active | COc1cc2c(cc1OC)-c1c3c(cc4ccnc(c14)C2=O)OCO3 [DICENTRINONE] | 102.1 | 112.4 |  |  | 
5 |  | COc1ccc2c(c1OC)-c1c3c(cc4c1[C@H](C2)N(C)CC4)OCO3 | 55.2 | 22.9 | 73 | 60.8 | Activity [10]: 88.5%; Activity [11]: 68.1%
6 |  | CC(=O)Oc1ccccc1C(=O)O [ASPIRIN] |  |  |  |  | Activity [12]: 85.4%; Activity [13]: 0%
